Here are results for 3 molecules from patent US20200138822A1, “TOPICAL COMPOSITIONS COMPRISING PENTOXIFYLLINE AND METHODS OF TREATMENT USING THE SAME” (priority 2018, published 2020).

Data set [1] relates to oral ulcers of BD patients. The data set is described as follows: Randomized, open-label clinical study: index ulcer healing (ulcer area by digital image processing). Type of data set: in vivo, human. Here is the method:
(§1) A randomized, open-label, proof-of-concept clinical study was conducted under an FDA Investigational New Drug Application (IND). […] The CLC was administered orally as a pill and dosed as determined by the subject's physician. No less than every 48 hours, subjects' ulcers were photographed and examined using digital image processing to determine ulcer area, over a period of 14 days, which include daily collection of adverse events, ulcer number, and pain scores.
(§2) Inclusion criteria required the recent (<2 days) appearance of a new oral ulcer. Patients on immunosuppressant therapies were excluded from the study.
Patients were contacted daily for 14 consecutive days and were examined in-person no less than every 48 hours except for weekends. On the first day of entry into the study, the largest ulcer was identified and photographed as the “index ulcer”; its location was recorded and it was subsequently photographed at every in-person visit. Photographs were made with a paper ruler showing millimeter graduations lain in the same plane as the ulcer itself. Graphical processing software was used to compute the ulcer area in square millimeters; this software was calibrated from the paper ruler image and required drawing a line around the image of the ulcer margin.
Then, the proportion of patients with undetectable index ulcer (defined as those with an ulcer area of less than 1 mm^2) at day 4 was compared. Lastly, the trend in mean ulcer area over 14 days was compared as well as the results' sensitivity to outliers.

For a further data set, the system named is BD patients. The data set is described as follows: Randomized, open-label clinical study: adverse events / safety. The following applies: 14-day study. On the procedure: as §1, §2
All adverse events were reviewed in real time by the treating physician investigator.

For data set [2], the system named is oral ulcers of BD patients. As to the kind of experiment: Randomized, open-label clinical study: daily average number of oral ulcers. Type of data set: in vivo, human. To be noted: during the two-week treatment period; mean +/- SD. Here is the method:
as §1, §2
The total number of oral ulcers were also counted at each in-person visit, and the daily average number of oral ulcers were calculated during the treatment period.

The conditions of data set [3]: times greater than PTX; cited from earlier work.
Setting [4] is: Day 2, PTX+CLC n = 18, CLC n = 21.
The mark [5] stands for this setting: Day 4 clearance, undetectable = ulcer area less than 1 mm^2, n = 18 / n = 21.

For the molecule `COc1cc2c(c(OC)c1OC)-c1ccc(OC)c(=O)cc1[C@@H](NC(C)=O)CC2` [CLC, colchicine], in data set [1] (setting [4]), the “Patients with Index Ulcer Growth - %” value was “(80%)”, the “Patients with Index Ulcer Growth - Number” value turned out to be 16, the “Patients with Index Ulcer Shrinkage - %” value was “(19%)” and the “Patients with Index Ulcer Shrinkage - Number” value was 4. Moreover, in data set [1] (Day 2, PTX+CLC n = 18, CLC n = 21, listed as CLC-only), the “Patients with Index Ulcer Shrinkage - %” value was 19%. In data set [1] (Day 4, n = 18 / n = 21), the “Patients with Remaining Ulcers - %” value is recorded as “(71%)” and the “Patients with Remaining Ulcers - Number” value came out at 15. For the same molecule, in data set [1] (setting [5]), the “Patients with Undetectable Ulcers - %” value is given as “(29%)” and the “Patients with Undetectable Ulcers - Number” value came to 6. Also, the “Patients with Undetectable Ulcers - %” value in data set [1] (Day 4 clearance, undetectable = ulcer area less than 1 mm^2, n = 18 / n = 21, listed as CLC-only) turned out to be 29%. Besides, the “Mean index ulcer area by treatment group (trend)” value in data set [1] (FIG. 1, over 14 days from day zero) was “first growing then slowly decreasing”. Moreover, in the data set with BD patients, the Serious adverse events result was “No serious adverse events occurred”. Further, in the data set on BD patients (adverse event), the “Dysgeusia - % of patients” value was 0%, the “Dysgeusia - number of patients” value is given as 0, the “Limited dermal rashes - % of patients” value is 29% and the “Limited dermal rashes - number of patients” value is given as 6. For the same molecule, in the data set on BD patients (adverse event), the “Nausea - % of patients” value is given as 10%, the “Nausea - number of patients” value is listed as 2 and the “Vomiting - number of patients” value is “none”. Further, the “Daily average number of oral ulcers” value in data set [2] is 1.89+/−1.36.

As for `CC(O)CCCCn1c(=O)c2c(ncn2C)n(C)c1=O` (stereo not shown) [Metabolite 1, 1-[5-hydroxyhexyl]-3,7-dimethylxanthine], in data set [3], the “Plasma levels of metabolite relative to PTX” value is “five”.

As to `Cn1cnc2c1c(=O)n(CCCC(=O)O)c(=O)n2C` [Metabolite V, 1-[3-carboxypropyl]-3,7-dimethylxanthine], in data set [3], the “Plasma levels of metabolite relative to PTX” value is “eight”.
